Biological target: T1, recombinant human histamine N-methyltransferase (rhHNMT) (Homo sapiens, UniProt P50135)
T1 construct: gene HNMT
Experiment: recombinant enzyme assay, LC-MS/MS of histamine and methylhistamine; Lineweaver-Burk analysis
Assay type: biochemical

T1 sequence (P50135 whole entry): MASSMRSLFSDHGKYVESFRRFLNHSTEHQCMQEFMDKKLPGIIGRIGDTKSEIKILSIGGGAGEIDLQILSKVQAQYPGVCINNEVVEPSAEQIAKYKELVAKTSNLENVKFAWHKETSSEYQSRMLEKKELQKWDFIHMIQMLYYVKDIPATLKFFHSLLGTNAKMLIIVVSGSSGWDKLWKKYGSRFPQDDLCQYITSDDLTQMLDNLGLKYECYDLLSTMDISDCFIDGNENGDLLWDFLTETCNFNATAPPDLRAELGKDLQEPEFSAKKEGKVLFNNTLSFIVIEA

C[N+](C)(C)[C@@H](Cc1c[nH]c(=S)[nH]1)C(=O)[O-] [ERGO, ergothioneine]
recombinant enzyme assay, LC-MS/MS of histamine and methylhistamine; Lineweaver-: Lineweaver–Burk analysis revealed that ERGO competitively inhibited rhHNMT against histamine (Fig. 6c)
